Data reported in patent US9381200B2, “Nitrogen containing compounds” (WOCKHARDT LIMITED, priority 2011, dated 2016).
Values after ≈ are worked out from the molar mass of the structure shown. Where two headings read alike, the source gives them in different places.

How the values were obtained:
Assay in all cases: Antibacterial activity (MIC), agar dilution per CLSI
Format in all cases: cell-based
E. coli 7 MP = details: Table 3, E. coli 7 MP expressing ESBL
Protocol: (§1) The biological activity of representative compounds according to the invention against various bacterial strains was investigated. In a typical study, overnight grown bacterial cultures were diluted appropriately and inoculated on the agar media containing doubling dilutions of the test compounds. Observation for growth or no growth was performed after 16-20 hours of incubation at 35±2° C. in ambient air. The overall procedure was performed as per Clinical and Laboratory Standards Institute (CLSI) recommendations (Clinical and Laboratory Standards Institute (CLSI), Performance Standards for Antimicrobial Susceptibility Testing, 20th Informational Supplement, M 100-S20, Volume 30, No. 1, 2010).
(§2) Table 3 details antibacterial activity of representative compounds according to the invention against various E. coli strains (NCTC 13351, M 50 and 7 MP) expressing ESBL (Extended Spectrum Beta Lactamases).

E. coli NCTC 13351 = details: 16-20 hours, 35±2° C.
Protocol: as §1, §2

E. coli M 50 = E. coli M 50 expressing ESBL, agar dilution
Protocol: as §1
The activities are expressed as MICs (mcg/ml).

[1] = Escherichia coli, read-out: MIC
[2] = Escherichia coli, NCTC13351, Table 3, E. coli NCTC 13351 expressing ESBL, read-out: MIC
[3] = Escherichia coli, M50, Table 3, read-out: MIC
[4] = Table 3, E. coli NCTC 13351 expressing ESBL

SMILES | MIC (E. coli 7 MP; [1]) [µg/mL] | MIC (E. coli NCTC 13351; [2]) [µg/mL] | MIC (E. coli M 50; [3]) [µg/mL] | MIC (E. coli 7 MP) [µg/mL] | MIC (E. coli NCTC 13351; [4]) [µg/mL] | MIC (E. coli M 50; Table 3) [µg/mL]
CO[C@H]1CN[C@H](C(=O)NNC(=O)[C@H]2CC[C@@H]3CN2C(=O)N3OS(=O)(=O)O)C1 (mixture of isomers) [Example 12, trans-sulfuric acid mono-[2-(N′-[(2S,4R)-4-methoxy-pyrrolidin-2-carbonyl]-hydrazinocarbonyl)-7-oxo-1,6-diaza-bicyclo[3.2.1]oct-6-yl]ester] | 32 | 1 | 8 |  |  | 
O=C(NNC(=O)[C@H]1CC[C@@H]2CN1C(=O)N2OS(=O)(=O)O)[C@H]1CCCNC1 (mixture of isomers) [Example 15, trans-sulfuric acid mono-[2-(N′—((S)-piperidin-3-carbonyl)-hydrazinocarbonyl)-7-oxo-1,6-diaza-bicyclo[3.2.1]oct-6-yl]ester] | 16 | 8 | 4 |  |  | 
O=C(NNC(=O)[C@H]1CCCCN1)[C@H]1CC[C@@H]2CN1C(=O)N2OS(=O)(=O)O (mixture of isomers) [Example 18, trans-sulfuric acid mono-[2-(N′—((R)-piperidin-2-carbonyl)-hydrazinocarbonyl)-7-oxo-1,6-diaza-bicyclo[3.2.1]oct-6-yl]ester] | 32 | 8 | 4 |  |  | 
NCCCC[C@H](N)C(=O)NNC(=O)[C@H]1CC[C@@H]2CN1C(=O)N2OS(=O)(=O)O (mixture of isomers) [Example 26, trans-sulfuric acid mono-[2-(N′-((2S)-2,6-diamino-hexanoyl)-hydrazinocarbonyl)-7-oxo-1,6-diaza-bicyclo[3.2.1]oct-6-yl]ester] | 2 | 1 | 1 |  |  | 
O=C(NNC(=O)[C@H]1CC[C@@H]2CN1C(=O)N2OS(=O)(=O)O)[C@H]1CCNC1 (mixture of isomers) [Example 33, trans-sulfuric acid mono-[2-(N′—[(S)-pyrrolidin-3-carbonyl]-hydrazinocarbonyl)-7-oxo-1,6-diaza-bicyclo[3.2.1]oct-6-yl]ester] | 2 | 1 | 0.5 |  |  | 
O=C(NNC(=O)[C@H]1CC[C@@H]2CN1C(=O)N2OS(=O)(=O)O)[C@@H]1C[C@@H](O)CN1 (mixture of isomers) [Example 34, trans-sulfuric acid mono-[2-(N′-[(2S,4R)-4-hydroxy-pyrrolidin-2-carbonyl]-hydrazinocarbonyl)-7-oxo-1,6-diaza-bicyclo[3.2.1]oct-6-yl]ester] | 8 | 2 | 2 |  |  | 
N=C(N)N[C@@H]1CN[C@H](C(=O)NNC(=O)[C@H]2CC[C@@H]3CN2C(=O)N3OS(=O)(=O)O)C1 (mixture of isomers) [Example 36, trans-sulfuric acid mono-[2-(N′-[(2S,4S)-4-guanidino-pyrrolidin-2-carbonyl]-hydrazinocarbonyl)-7-oxo-1,6-diaza-bicyclo[3.2.1]oct-6-yl]ester] | 2 | 1 | 1 |  |  | 
O=C(NNC(=O)[C@H]1CC[C@@H]2CN1C(=O)N2OS(=O)(=O)O)[C@@H]1COCCN1 (mixture of isomers) [Example 39, trans-sulfuric acid mono-[2-(N′—((S)-morpholin-3-carbonyl)-hydrazinocarbonyl)-7-oxo-1,6-diaza-bicyclo[3.2.1]oct-6-yl]ester] | 8 | 4 | 2 |  |  | 
O=C(NNC(=O)[C@H]1CC[C@@H]2CN1C(=O)N2OS(=O)(=O)O)C1CCCCN1 (mixture of isomers) [Example 16, trans-sulfuric acid mono-[2-(N′—((RS)-piperidin-2-carbonyl)-hydrazinocarbonyl)-7-oxo-1,6-diaza-bicyclo[3.2.1]oct-6-yl]ester] | 2 (≈ 5.11 µM) | 1 (≈ 2.55 µM) | 1 (≈ 2.55 µM) |  |  | 
NC(C(=O)NNC(=O)[C@H]1CC[C@@H]2CN1C(=O)N2OS(=O)(=O)O)c1ccccc1 (mixture of isomers) [Example 20, trans-sulfuric acid mono-[2-(N′—((RS)-1-amino-1-phenyl-acetyl)-hydrazinocarbonyl)-7-oxo-1,6-diaza-bicyclo[3.2.1]oct-6-yl]ester] |  |  |  | 8 (≈ 19.4 µM) | 2 (≈ 4.84 µM) | 2 (≈ 4.84 µM)
CC(N)CC(=O)NNC(=O)[C@H]1CC[C@@H]2CN1C(=O)N2OS(=O)(=O)O (mixture of isomers) [Example 21, trans-sulfuric acid mono-[2-(N′—((RS)-3-amino-butanoyl)-hydrazinocarbonyl)-7-oxo-1,6-diaza-bicyclo[3.2.1]oct-6-yl]ester] | 4 (≈ 10.9 µM) | 1 (≈ 2.74 µM) | 1 (≈ 2.74 µM) |  |  | 
O=C(NNC(=O)[C@H]1CC[C@@H]2CN1C(=O)N2OS(=O)(=O)O)C1CCNC1 (mixture of isomers) [Example 32, trans-sulfuric acid mono-[2-(N′—[(RS)-pyrrolidin-3-carbonyl]-hydrazinocarbonyl)-7-oxo-1,6-diaza-bicyclo[3.2.1]oct-6-yl]ester] | 1 (≈ 2.65 µM) | 0.5 (≈ 1.32 µM) | 0.5 (≈ 1.32 µM) |  |  | 
O=C(CCC1CCCCN1)NNC(=O)[C@H]1CC[C@@H]2CN1C(=O)N2OS(=O)(=O)O (mixture of isomers) [Example 37, trans-sulfuric acid mono-[2-(N′—[(RS)-3-piperidin-2-yl-propionyl]-hydrazinocarbonyl)-7-oxo-1,6-diaza-bicyclo[3.2.1]oct-6-yl]ester] | 4 (≈ 9.54 µM) | 2 (≈ 4.77 µM) | 2 (≈ 4.77 µM) |  |  | 
NC(C(=O)NNC(=O)[C@H]1CC[C@@H]2CN1C(=O)N2OS(=O)(=O)O)c1ccccn1 (mixture of isomers) [Example 41, trans-sulfuric acid mono-[2-(N′—((RS)-1-amino-1-pyridin-2-yl-acetyl)-hydrazinocarbonyl)-7-oxo-1,6-diaza-bicyclo[3.2.1]oct-6-yl]ester] |  |  |  | 16 (≈ 38.6 µM) | 4 (≈ 9.65 µM) | 4 (≈ 9.65 µM)
NNC(=O)[C@H]1CC[C@@H]2CN1C(=O)N2OS(=O)(=O)O (relative stereo) [Example 6, trans-sulfuric acid mono-[2-hydrazinocarbonyl-7-oxo-1,6-diaza-bicyclo[3.2.1]oct-6-yl]ester] | 128 (≈ 457 µM) | 32 (≈ 114 µM) | 64 (≈ 228 µM) |  |  | 
N[C@@H](CO)C(=O)NNC(=O)[C@H]1CC[C@@H]2CN1C(=O)N2OS(=O)(=O)O (relative stereo) [Example 10] |  |  |  | 32 (≈ 87.1 µM) | 1 (≈ 2.72 µM) | 8 (≈ 21.8 µM)
CC(C)(CN)C(=O)NNC(=O)[C@H]1CC[C@@H]2CN1C(=O)N2OS(=O)(=O)O (relative stereo) [Example 22, trans-sulfuric acid mono-[2-(N′-(3-amino-2,2-dimethyl-propioyl)-hydrazinocarbonyl)-7-oxo-1,6-diaza-bicyclo[3.2.1]oct-6-yl]ester] | 8 (≈ 21.1 µM) | 4 (≈ 10.5 µM) | 4 (≈ 10.5 µM) |  |  | 
NCC1(C(=O)NNC(=O)[C@H]2CC[C@@H]3CN2C(=O)N3OS(=O)(=O)O)CC1 (relative stereo) [Example 23, trans-sulfuric acid mono-[2-(N′-(1-aminomethyl-cyclopropan-1-carbonyl)-hydrazinocarbonyl)-7-oxo-1,6-diaza-bicyclo[3.2.1]oct-6-yl]ester] | 8 (≈ 21.2 µM) | 4 (≈ 10.6 µM) | 4 (≈ 10.6 µM) |  |  | 
